Measurements: US10934310B2, “Inhibitors of Bruton's tyrosine kinase and method of their use” (JANSSEN PHARMACEUTICA NV, priority 2015, dated 2021)

Biological target: unphosphorylated-BTK kinase domain (UP-BTK), GST-tagged human BTK (389-659aa) (Homo sapiens (Human), UniProt Q06187)
Test: BTK Kinase Lanthascreen Binding Assay
Settings: for BTK_I_binding pIC50: pIC50 = negative log of the IC50 in molar; for IC50: read-out: BTK_I_binding pIC50 (converted)
Description: BTK Kinase Lanthascreen Binding Assay:
A BTK kinase lanthascreen binding assay monitors compound binding to unphosphorylated-BTK kinase domain (UP-BTK), by competing with a fluorescent labeled tracer. […] Data were analyzed using Xlfit™ version 5.3 from ID Business Solutions (Guildford), Microsoft Excel add-in. pIC50 refers to the negative log of the IC50 in molar.

[1] = Lanthascreen binding, 60 minutes incubation
[2] = compound, 50 nM Tracer 236, 2 nM anti-GST antibody, 60 minutes

unphosphorylated-BTK kinase domain (UP-BTK), GST-tagged human BTK (389-659aa), sequence (Q06187 389-659): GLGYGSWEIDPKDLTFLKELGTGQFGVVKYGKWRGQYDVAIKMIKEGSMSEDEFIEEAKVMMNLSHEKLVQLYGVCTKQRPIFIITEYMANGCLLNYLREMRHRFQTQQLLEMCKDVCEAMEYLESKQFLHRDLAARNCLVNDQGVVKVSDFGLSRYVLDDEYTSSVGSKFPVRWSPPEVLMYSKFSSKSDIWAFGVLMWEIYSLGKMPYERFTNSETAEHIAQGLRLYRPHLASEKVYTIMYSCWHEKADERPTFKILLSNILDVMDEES

| SMILES | BTK_I_binding pIC50 [1] | BTK_I_binding pIC50 [2] | further results |
| --- | --- | --- | --- |
| C=CC(=O)N[C@H]1CCC[C@H]1NC(=O)c1sc2nccc3c2c1NC(=O)N3c1cnc(Oc2ccccn2)cc1C [Example 488, N-((1R,2S)-2-Acrylamidocyclopentyl)-5-(4-methyl-6-(pyridin-2-yloxy)pyridin-3-yl)-4-oxo-4,5-dihydro-3H-1-thia-3,5,8-triazaacenaphthylene-2-carboxamide] | 7.62 |  |  |
| CC(C)c1cccc(N2C(=O)Nc3c(C(=O)N[C@@H]4CCC[C@@H]4N)sc4nccc2c34)c1 [Example 455, N-((1R,2S)-2-Aminocyclopentyl)-5-(3-isopropylphenyl)-4-oxo-4,5-dihydro-3H-1-thia-3,5,8-triazaacenaphthylene-2-carboxamide] |  |  | IC50: > 1000 nM |
| C=CC(=O)N[C@H]1CCC[C@H]1NC(=O)c1sc2nccc3c2c1NC(=O)N3c1cccc(-c2ccccn2)c1 [Example 194, N-((1R,2S)-2-Acrylamidocyclopentyl)-4-oxo-5-(3-(pyridin-2-yl)phenyl)-4,5-dihydro-3H-1-thia-3,5,8-triazaacenaphthylene-2-carboxamide] |  | 7.89 |  |
| N[C@@H]1CC[C@H](NC(=O)c2sc3nccc4c3c2NC(=O)N4c2ccc(Oc3ccccc3)cc2)C1 [Example 164, N-((1S,3R)-3-Aminocyclopentyl)-4-oxo-5-(4-phenoxyphenyl)-4,5-dihydro-3H-1-thia-3,5,8-triazaacenaphthylene-2-carboxamide] |  | 5.19 |  |
| CC(=O)N[C@H]1CCC[C@H]1NC(=O)c1sc2nccc3c2c1NC(=O)N3c1cnc(Oc2ccccc2)cc1C (single isomer, unassigned) [Example 378, N-((1R,2S)-2-Acetamidocyclopentyl)-5-(*S)-(4-methyl-6-phenoxypyridin-3-yl)-4-oxo-4,5-dihydro-3H-1-thia-3,5,8-triazaacenaphthylene-2-carboxamide] | 6.39 |  |  |
| CC(=O)N[C@@H]1CCCC[C@@H]1NC(=O)c1sc2nccc3c2c1NC(=O)N3c1ccc(Oc2ccccc2)cc1C (single isomer, unassigned) [Example 446, N-((1S,2R)-2-Acetamidocyclohexyl)-5-(*S)-(2-methyl-4-phenoxyphenyl)-4-oxo-4,5-dihydro-3H-1-thia-3,5,8-triazaacenaphthylene-2-carboxamide] | 6.72 |  |  |
| Cc1cc(Oc2ccccc2)ccc1N1C(=O)Nc2c(C(=O)N[C@H]3CC[C@@H](O)CC3)sc3nccc1c23 (single isomer, unassigned) [Example 84, N-((1S,4S)-4-Hydroxycyclohexyl)-5-(*R)-(2-methyl-4-phenoxyphenyl)-4-oxo-4,5-dihydro-3H-1-thia-3,5,8-triazaacenaphthylene-2-carboxamide] |  | 6.21 |  |
| CNCC(=O)N[C@@H]1CCCC[C@@H]1NC(=O)c1sc2nccc3c2c1NC(=O)N3c1ccc(Oc2ccccc2)cc1C (single isomer, unassigned) [Example 443, 5-(*S)-(2-Methyl-4-phenoxyphenyl)-N-((1S,2R)-2-(2-(methylamino)acetamido)cyclohexyl)-4-oxo-4,5-dihydro-3H-1-thia-3,5,8-triazaacenaphthylene-2-carboxamide] | 6.74 |  |  |
| O=C(N[C@@H]1CCC[C@H]1O)c1sc2nccc3c2c1NC(=O)N3c1ccnc(-c2ccccc2)c1 [Example 268, N-((1R,2R)-2-Hydroxycyclopentyl)-4-oxo-5-(2-phenylpyridin-4-yl)-4,5-dihydro-3H-1-thia-3,5,8-triazaacenaphthylene-2-carboxamide] |  |  | IC50: 631 nM |
| C=CC(=O)N[C@H]1CCC[C@H]1NC(=O)c1sc2nccc3c2c1NC(=O)N3c1ccnc(C(C)C)c1 [Example 207, N-((1R,2S)-2-Acrylamidocyclopentyl)-5-(2-isopropylpyridin-4-yl)-4-oxo-4,5-dihydro-3H-1-thia-3,5,8-triazaacenaphthylene-2-carboxamide] |  | 7.53 |  |
| N[C@H]1CCC[C@H]1NC(=O)c1sc2nccc3c2c1NC(=O)N3c1cccc(-c2ccccn2)c1 [Example 285, N-((1R,2S)-2-Aminocyclopentyl)-4-oxo-5-(3-(pyridin-2-yl)phenyl)-4,5-dihydro-3H-1-thia-3,5,8-triazaacenaphthylene-2-carboxamide] |  |  | IC50: > 1000 nM |
| Cc1cc(Oc2ccccc2)ccc1N1C(=O)Nc2c(C(=O)N[C@H]3CCCC[C@H]3NC(=O)CN)sc3nccc1c23 (single isomer, unassigned) [Example 444, N-((1S,2R)-2-(2-Aminoacetamido)cyclohexyl)-5-(*S)-(2-methyl-4-phenoxyphenyl)-4-oxo-4,5-dihydro-3H-1-thia-3,5,8-triazaacenaphthylene-2-carboxamide] | 6.73 |  |  |
| C=CC(=O)N[C@@H]1CCC[C@H]1NC(=O)c1sc2nccc3c2c1NC(=O)N3c1ccc(Oc2ccccc2)nc1C (single isomer, unassigned) [Example 301, N-((1R,2R)-2-Acrylamidocyclopentyl)-5-(*S)-(2-methyl-6-phenoxypyridin-3-yl)-4-oxo-4,5-dihydro-3H-1-thia-3,5,8-triazaacenaphthylene-2-carboxamide] | 7.97 |  |  |
| CNCC(=O)N[C@@H]1CC[C@@H](NC(=O)c2sc3nccc4c3c2NC(=O)N4c2ccc(Oc3ccccc3)cc2C)C1 [Example 229, 5-(2-Methyl-4-phenoxyphenyl)-N-((1R,3R)-3-(2-(methylamino)acetamido)cyclopentyl)-4-oxo-4,5-dihydro-3H-1-thia-3,5,8-triazaacenaphthylene-2-carboxamide] |  | 7.29 |  |
| C=CC(=O)N[C@@H]1CCC[C@H]1NC(=O)c1sc2nccc3c2c1NC(=O)N3c1cnc(Oc2ccccc2)cc1C (single isomer, unassigned) [Example 200, N-((1R,2R)-2-Acrylamidocyclopentyl)-5-(*S)-(4-methyl-6-phenoxypyridin-3-yl)-4-oxo-4,5-dihydro-3H-1-thia-3,5,8-triazaacenaphthylene-2-carboxamide] |  | 8.18 |  |
| CC(=O)N[C@H]1CCCC[C@H]1NC(=O)c1sc2nccc3c2c1NC(=O)N3c1ccc(Oc2ccccc2)nc1C (single isomer, unassigned) [Example 340, N-((1R,2S)-2-Acetamidocyclohexyl)-5-(*S)-(2-methyl-6-phenoxypyridin-3-yl)-4-oxo-4,5-dihydro-3H-1-thia-3,5,8-triazaacenaphthylene-2-carboxamide] | 6.26 |  |  |
| CN[C@@H]1CCC[C@H]1NC(=O)c1sc2nccc3c2c1NC(=O)N3c1ccc(Oc2ccccc2)cc1C [Example 21, 5-(2-Methyl-4-phenoxyphenyl)-N-((1R,2R)-2-(methylamino)cyclopentyl)-4-oxo-4,5-dihydro-3H-1-thia-3,5,8-triazaacenaphthylene-2-carboxamide] |  | 6.85 |  |
| C=CC(=O)N[C@@H]1CC[C@@H](NC(=O)c2sc3nccc4c3c2NC(=O)N4c2ccc(Oc3ccccc3)nc2)C1 (racemic) [Example 188, N-((1RS,3RS)-3-Acrylamidocyclopentyl)-4-oxo-5-(6-phenoxypyridin-3-yl)-4,5-dihydro-3H-1-thia-3,5,8-triazaacenaphthylene-2-carboxamide] |  |  | IC50: 77.6 nM |
| C=CC(=O)N[C@@H]1CCCC[C@H]1NC(=O)c1sc2nccc3c2c1NC(=O)N3c1ccc(OC(C)C)cc1C (single isomer, unassigned) [Example 273, N-((1R,2R)-2-Acrylamidocyclohexyl)-5-(*S)-(4-isopropoxy-2-methylphenyl)-4-oxo-4,5-dihydro-3H-1-thia-3,5,8-triazaacenaphthylene-2-carboxamide] |  |  | IC50: > 1000 nM |
| C=CC(=O)N[C@@H]1CC[C@H](NC(=O)c2sc3nccc4c3c2NC(=O)N4c2cnc(Oc3ccccc3)cc2C)C1 (single isomer, unassigned) [Example 430, N-((1S,3R)-3-Acrylamidocyclopentyl)-5-(*S)-(4-methyl-6-phenoxypyridin-3-yl)-4-oxo-4,5-dihydro-3H-1-thia-3,5,8-triazaacenaphthylene-2-carboxamide] | 8.17 |  |  |
| Cc1nc(Oc2ccccc2)ncc1N1C(=O)Nc2c(C(=O)N[C@@H]3CCC[C@H]3N)sc3nccc1c23 (single isomer, unassigned) [Example 256, N-((1R,2R)-2-Aminocyclopentyl)-5-(*S)-(4-methyl-2-phenoxypyrimidin-5-yl)-4-oxo-4,5-dihydro-3H-1-thia-3,5,8-triazaacenaphthylene-2-carboxamide] |  | 6.48 |  |
| Cc1cc(Oc2ccccc2)ccc1N1C(=O)Nc2c(C(=O)N[C@@H]3CCCC[C@@H]3N(C)C)sc3nccc1c23 (relative stereo) [Example 7, N-((1R,2S)-2-(Dimethylamino)cyclohexyl)-5-(*S)-(2-methyl-4-phenoxyphenyl)-4-oxo-4,5-dihydro-3H-1-thia-3,5,8-triazaacenaphthylene-2-carboxamide] |  | 7.31 |  |
| C=CC(=O)N[C@H]1CCC[C@H]1NC(=O)c1sc2nccc3c2c1NC(=O)N3c1ccc(Oc2cccnc2)nc1C [Example 494, N-((1R,2S)-2-Acrylamidocyclopentyl)-5-(2-methyl-6-(pyridin-3-yloxy)pyridin-3-yl)-4-oxo-4,5-dihydro-3H-1-thia-3,5,8-triazaacenaphthylene-2-carboxamide] | 7.37 |  |  |
| CC(=O)N[C@@H]1CCC[C@H]1NC(=O)c1sc2nccc3c2c1NC(=O)N3c1ccc(Oc2ccccc2)cc1C (single isomer, unassigned) [Example 67, N-((1R,2R)-2-Acetamidocyclopentyl)-5-(*S)-(2-methyl-4-phenoxyphenyl)-4-oxo-4,5-dihydro-3H-1-thia-3,5,8-triazaacenaphthylene-2-carboxamide] |  | 7.41 |  |
